Laboratory results: patent US9539260B2, “Dihydro-benzo-oxazine and dihydro-pyrido-oxazine derivatives” (Novartis AG, priority 2012, dated 2017)

How the values were obtained:
PI3K alpha = PI3K alpha (Homo sapiens (Human), UniProt P42336); assay: Enzymatic PI3K alpha isoform inhibition (lipid kinase activity, Kinase-Glo luminescence); type: biochemical; details: Enzymatic assay
Experimental: (§1) 1.1 Test of Lipid Kinase Activity […]
(§2) In a more preferred assay, the kinase reaction is performed in a final volume of 10 μl per well of a low volume non-binding CORNING, 384 well black plate (Cat. No. #3676). The final concentrations of ATP and phosphatidyl inositol (PI) in the assay are 1 μM and 10 μg/mL, respectively. The reaction is started by the addition of ATP.
(§3) The components of the assay are added per well as follows:
(§4) The Z′ value is a universal measurement of the robustness of an assay. A Z′ between 0.5 and 1.0 is considered an excellent assay.
(§5) IC50 is determined by a four parameter curve fitting routine that comes along with “excel fit”. A four parameter logistic equation is used to calculate IC50 values (IDBS XLfit) of the percentage inhibition of each compound at 8 concentrations (usually 10, 3.0, 1.0, 0.3, 0.1, 0.030, 0.010 and 0.003 μM). Alternatively, IC50 values are calculated using idbsXLfit model 204, which is a 4 parameter logistic model.
(§6) Yet alternatively, for an ATP depletion assay, compounds of the formula I to be tested are dissolved in DMSO and directly distributed into a white 384-well plate at 0.5 μl per well. To start the reaction, 10 μl of 10 nM PI3 kinase and 5 μg/mL 1-alpha-phosphatidylinositol (PI) are added into each well followed by 10 μl of 2 μM ATP. The reaction is performed until approx 50% of the ATP is depleted, and then stopped by the addition of 20 μl of Kinase-Glo solution (Promega Corp., Madison, Wis., USA). The stopped reaction is incubated for 5 minutes and the remaining ATP is then detected via luminescence. IC50 values are then determined.

PI3K delta = PI3K delta (Homo sapiens (Human), UniProt O00329); assay: Enzymatic PI3K delta isoform inhibition (lipid kinase activity, Kinase-Glo luminescence); type: biochemical; details: Enzymatic assay
Experimental: as §1, §2, §3, §4, §5, §6

Chain of PI3K delta (O00329 other isoform, or with tags, fused parts or gaps linker GGGGGG): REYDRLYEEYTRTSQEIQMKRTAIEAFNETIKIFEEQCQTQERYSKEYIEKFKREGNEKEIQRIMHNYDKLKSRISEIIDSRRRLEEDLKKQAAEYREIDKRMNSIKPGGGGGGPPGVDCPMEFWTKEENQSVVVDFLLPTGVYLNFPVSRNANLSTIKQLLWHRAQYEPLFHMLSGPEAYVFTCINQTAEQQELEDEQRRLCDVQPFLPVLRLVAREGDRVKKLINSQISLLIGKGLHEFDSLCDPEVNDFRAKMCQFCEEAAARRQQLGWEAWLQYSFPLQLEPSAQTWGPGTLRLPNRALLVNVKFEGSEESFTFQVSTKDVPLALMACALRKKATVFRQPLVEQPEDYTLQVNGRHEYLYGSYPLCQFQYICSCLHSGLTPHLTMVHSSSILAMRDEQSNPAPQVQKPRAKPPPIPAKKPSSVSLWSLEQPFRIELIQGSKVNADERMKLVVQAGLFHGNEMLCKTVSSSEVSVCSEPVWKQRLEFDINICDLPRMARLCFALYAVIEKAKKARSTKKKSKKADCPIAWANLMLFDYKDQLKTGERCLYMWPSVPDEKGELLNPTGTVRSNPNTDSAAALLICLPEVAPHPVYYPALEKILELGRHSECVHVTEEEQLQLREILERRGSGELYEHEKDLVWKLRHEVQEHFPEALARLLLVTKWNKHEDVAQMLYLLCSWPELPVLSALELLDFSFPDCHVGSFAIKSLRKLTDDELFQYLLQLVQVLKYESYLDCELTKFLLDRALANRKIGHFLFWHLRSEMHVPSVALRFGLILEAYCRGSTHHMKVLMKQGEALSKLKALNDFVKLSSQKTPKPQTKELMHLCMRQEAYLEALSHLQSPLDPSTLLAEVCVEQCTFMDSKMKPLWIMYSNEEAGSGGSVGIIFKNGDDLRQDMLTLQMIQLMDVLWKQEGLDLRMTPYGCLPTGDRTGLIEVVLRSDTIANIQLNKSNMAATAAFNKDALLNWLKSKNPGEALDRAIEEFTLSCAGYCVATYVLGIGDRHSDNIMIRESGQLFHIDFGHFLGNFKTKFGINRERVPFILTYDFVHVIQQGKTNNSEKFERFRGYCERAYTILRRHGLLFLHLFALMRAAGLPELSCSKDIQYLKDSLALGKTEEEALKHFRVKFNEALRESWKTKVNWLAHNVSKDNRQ
Chain of PI3K alpha (P42336 other isoform, or with tags, fused parts or gaps): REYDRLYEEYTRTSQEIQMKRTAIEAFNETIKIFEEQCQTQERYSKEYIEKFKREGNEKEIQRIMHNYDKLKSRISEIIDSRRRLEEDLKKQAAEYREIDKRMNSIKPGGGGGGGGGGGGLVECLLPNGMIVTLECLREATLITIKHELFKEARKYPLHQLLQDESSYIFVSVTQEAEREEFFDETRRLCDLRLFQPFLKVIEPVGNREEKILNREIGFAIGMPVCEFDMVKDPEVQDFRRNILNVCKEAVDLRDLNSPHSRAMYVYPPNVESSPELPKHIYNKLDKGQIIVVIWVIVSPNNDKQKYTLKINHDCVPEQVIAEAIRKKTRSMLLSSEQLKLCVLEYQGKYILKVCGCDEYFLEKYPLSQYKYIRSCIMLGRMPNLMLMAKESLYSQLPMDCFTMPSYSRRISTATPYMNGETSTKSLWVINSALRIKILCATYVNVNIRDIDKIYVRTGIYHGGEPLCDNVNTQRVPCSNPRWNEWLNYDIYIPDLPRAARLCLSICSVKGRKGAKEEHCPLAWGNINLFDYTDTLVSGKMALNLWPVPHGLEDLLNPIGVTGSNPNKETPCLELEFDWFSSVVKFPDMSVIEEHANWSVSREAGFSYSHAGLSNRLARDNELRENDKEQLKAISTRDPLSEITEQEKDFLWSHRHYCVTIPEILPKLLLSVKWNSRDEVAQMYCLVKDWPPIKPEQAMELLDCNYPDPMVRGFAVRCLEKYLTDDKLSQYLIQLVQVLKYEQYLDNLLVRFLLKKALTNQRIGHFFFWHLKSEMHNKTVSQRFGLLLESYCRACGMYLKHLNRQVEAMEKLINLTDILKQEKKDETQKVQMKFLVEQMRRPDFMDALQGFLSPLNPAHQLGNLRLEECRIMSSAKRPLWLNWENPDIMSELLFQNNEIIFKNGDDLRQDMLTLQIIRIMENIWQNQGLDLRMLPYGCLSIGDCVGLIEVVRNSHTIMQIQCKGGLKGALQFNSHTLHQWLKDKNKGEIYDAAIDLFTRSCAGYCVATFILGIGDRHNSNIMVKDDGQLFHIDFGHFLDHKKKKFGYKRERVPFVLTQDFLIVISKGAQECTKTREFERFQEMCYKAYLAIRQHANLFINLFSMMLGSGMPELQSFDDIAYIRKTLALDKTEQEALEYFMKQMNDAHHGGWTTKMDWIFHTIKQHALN

COc1ncc(N2CCOc3ccc(O[C@H]4CCN(C(=O)Cc5cn(C)cn5)C4)cc32)cc1C#N [Example D37, 2-Methoxy-5-(6-{(S)-1-[2-(1-methyl-1H-imidazol-4-yl)-acetyl]-pyrrolidin-3-yloxy}-2,3-dihydro-benzo[1,4]oxazin-4-yl)-nicotinonitrile]
IC50 (PI3K alpha): 298 nM
IC50 (PI3K delta): 127 nM

CCC(=O)N1CC[C@H](Oc2ccc3c(c2)N(c2cnc(OC)c(Cl)c2)CCO3)C1 [Example A12, 1-{(S)-3-[4-(5-Chloro-6-methoxy-pyridin-3-yl)-3,4-dihydro-2H-benzo[1,4]oxazin-6-yloxy]-pyrrolidin-1-yl}-propan-1-one]
IC50 (PI3K alpha): 182 nM
IC50 (PI3K delta): 3 nM

COc1ncc(N2CCOc3ccc(O[C@H]4CCN(C(=O)C5CCOC5)C4)cc32)cc1C (stereo partly drawn) [Example B94, {(S)-3-[4-(6-Methoxy-5-methyl-pyridin-3-yl)-3,4-dihydro-2H-benzo[1,4]oxazin-6-yloxy]-pyrrolidin-1-yl}-(tetrahydro-furan-3-yl)-methanone]
IC50 (PI3K alpha): 416 nM
IC50 (PI3K delta): 5 nM

CCC(=O)N1CC[C@H](Oc2ccc3c(c2)N(c2cncc(S(=O)(=O)N(C)OC)c2)CCO3)C1 [Example A30, 5-[6-((S)-1-Propionyl-pyrrolidin-3-yloxy)-2,3-dihydro-benzo[1,4]oxazin-4-yl]-pyridine-3-sulfonic acid methoxy-methyl-amide]
IC50 (PI3K alpha): 260 nM
IC50 (PI3K delta): 31 nM

COc1ncc(N2CCOc3ccc(O[C@H]4CCN(C(=O)CC(C)(C)C)C4)cc32)cc1C#N [Example D9, 5-{6-[(S)-1-(3,3-Dimethyl-butyryl)-pyrrolidin-3-yloxy]-2,3-dihydro-benzo[1,4]oxazin-4-yl}-2-methoxy-nicotinonitrile]
IC50 (PI3K alpha): 494 nM
IC50 (PI3K delta): 15 nM

COc1ncc(N2CCOc3ccc(O[C@H]4CCN(C(=O)C5CCS(=O)(=O)C5)C4)cc32)cc1C (single isomer, unassigned) [Example B27, (1,1-Dioxo-tetrahydro-1lambda*6*-thiophen-3-yl)-{(S)-3-[4-(6-methoxy-5-methyl-pyridin-3-yl)-3,4-dihydro-2H-benzo[1,4]oxazin-6-yloxy]-pyrrolidin-1-yl}-methanone]
IC50 (PI3K alpha): 2510 nM
IC50 (PI3K delta): 55 nM

COc1ncc(N2CCOc3ccc(O[C@H]4CCN(C(=O)C5CCCOC5)C4)cc32)cc1C#N (stereo partly drawn) [Example C26, 2-Methoxy-5-{6-[(S)-1-(tetrahydro-pyran-3-carbonyl)-pyrrolidin-3-yloxy]-2,3-dihydro-benzo[1,4]oxazin-4-yl}-nicotinonitrile]
IC50 (PI3K alpha): 6950 nM
IC50 (PI3K delta): 3220 nM

COc1ncc(N2CCOc3ccc(O[C@H]4CCN(C(=O)c5cc[nH]c(=O)c5)C4)cc32)cc1C#N [Example D21, 2-Methoxy-5-{6-[(S)-1-(2-oxo-1,2-dihydro-pyridine-4-carbonyl)-pyrrolidin-3-yloxy]-2,3-dihydro-benzo[1,4]oxazin-4-yl}-nicotinonitrile]
IC50 (PI3K alpha): 519 nM
IC50 (PI3K delta): 41 nM

Cc1cc(N2CCOc3ccc(O[C@H]4CCN(C(=O)C5CCOC5)C4)cc32)cnc1S(C)(=O)=O (stereo partly drawn) [Example B52, {(S)-3-[4-(6-Methanesulfonyl-5-methyl-pyridin-3-yl)-3,4-dihydro-2H-benzo[1,4]oxazin-6-yloxy]-pyrrolidin-1-yl}-(tetrahydro-furan-3-yl)-methanone]
IC50 (PI3K alpha): 556 nM
IC50 (PI3K delta): < 3 nM

Cc1cc(N2CCOc3ccc(O[C@H]4CCN(C(=O)C5CCOC5)C4)cc32)cnc1S(C)(=O)=O (stereo partly drawn) [Example B53, {(S)-3-[4-(6-Methanesulfonyl-5-methyl-pyridin-3-yl)-3,4-dihydro-2H-benzo[1,4]oxazin-6-yloxy]-pyrrolidin-1-yl}-(tetrahydro-furan-3-yl)-methanone]
IC50 (PI3K alpha): 343 nM
IC50 (PI3K delta): 4.5 nM

O=C(C1CCOCC1)N1CC[C@H](Oc2ccc3c(c2)N(c2cncc(Cl)c2)CCO3)C1 [Example A34, {(S)-3-[4-(5-Chloro-pyridin-3-yl)-3,4-dihydro-2H-benzo[1,4]oxazin-6-yloxy]-pyrrolidin-1-yl}-(tetrahydro-pyran-4-yl)-methanone]
IC50 (PI3K alpha): 773 nM
IC50 (PI3K delta): 9 nM

COc1ncc(N2CCOc3ccc(O[C@H]4CCN(C(=O)C5CCNCC5)C4)cc32)cc1C#N [Example D38, 2-Methoxy-5-{6-[(S)-1-(piperidine-4-carbonyl)-pyrrolidin-3-yloxy]-2,3-dihydro-benzo[1,4]oxazin-4-yl}-nicotinonitrile]
IC50 (PI3K alpha): 516 nM
IC50 (PI3K delta): 18 nM

COc1cc(N2CCOc3ccc(O[C@H]4CCN(C(=O)c5ccc(=O)[nH]c5)C4)cc32)cnc1Cl [Example B63, 5-{(S)-3-[4-(6-Chloro-5-methoxy-pyridin-3-yl)-3,4-dihydro-2H-benzo[1,4]oxazin-6-yloxy]-pyrrolidine-1-carbonyl}-1H-pyridin-2-one]
IC50 (PI3K alpha): 1520 nM
IC50 (PI3K delta): 68 nM

COc1ncc(N2CCOc3ccc(O[C@H]4CCN(C(=O)CCO)C4)cc32)cc1F [Example B113, 1-{(S)-3-[4-(5-Fluoro-6-methoxy-pyridin-3-yl)-3,4-dihydro-2H-benzo[1,4]oxazin-6-yloxy]-pyrrolidin-1-yl}-3-hydroxy-propan-1-one]
IC50 (PI3K alpha): 2730 nM
IC50 (PI3K delta): 109 nM

Cc1cc(N2CCOc3ccc(O[C@H]4CCN(C(=O)C5CC5)C4)cc32)cnc1S(C)(=O)=O [Example B80, Cyclopropyl-{(S)-3-[4-(6-methanesulfonyl-5-methyl-pyridin-3-yl)-3,4-dihydro-2H-benzo[1,4]oxazin-6-yloxy]-pyrrolidin-1-yl}-methanone]
IC50 (PI3K alpha): 295 nM
IC50 (PI3K delta): 4 nM

COc1ncc(N2CCOc3ccc(O[C@H]4CCN(C(=O)C5CCN(C(C)=O)CC5)C4)cc32)cc1C#N [Example D5, 5-{6-[(S)-1-(1-Acetyl-piperidine-4-carbonyl)-pyrrolidin-3-yloxy]-2,3-dihydro-benzo[1,4]oxazin-4-yl}-2-methoxy-nicotinonitrile]
IC50 (PI3K alpha): 802 nM
IC50 (PI3K delta): 42 nM

Cc1cc(N2CCOc3ccc(O[C@H]4CCN(S(=O)(=O)C5CC5)C4)cc32)cnc1S(C)(=O)=O [Example B83, 6-((S)-1-Cyclopropanesulfonyl-pyrrolidin-3-yloxy)-4-(6-methanesulfonyl-5-methyl-pyridin-3-yl)-3,4-dihydro-2H-benzo[1,4]oxazine]
IC50 (PI3K alpha): 214 nM
IC50 (PI3K delta): 29 nM

CCC(=O)N1CC[C@H](Oc2ccc3c(c2)N(c2ccc(OC)nc2)CCO3)C1 [Example C4, 1-{(S)-3-[4-(6-Methoxy-pyridin-3-yl)-3,4-dihydro-2H-benzo[1,4]oxazin-6-yloxy]-pyrrolidin-1-yl}-propan-1-one]
IC50 (PI3K alpha): 3000 nM
IC50 (PI3K delta): 28 nM

COc1ncc(N2CCOc3ccc(O[C@@H]4CON(C(=O)C5CCOCC5)C4)cc32)cc1C#N [Example D24, 2-Methoxy-5-{6-[(S)-2-(tetrahydro-pyran-4-carbonyl)-isoxazolidin-4-yloxy]-2,3-dihydro-benzo[1,4]oxazin-4-yl}-nicotinonitrile]
IC50 (PI3K alpha): > 9100 nM
IC50 (PI3K delta): 7080 nM

COc1ncc(N2CCOc3ccc(O[C@H]4CCN(C(=O)C5CCS(=O)(=O)CC5)C4)c(C)c32)cc1C(F)F [X, {(S)-3-[4-(5-Difluoromethyl-6-methoxy-pyridin-3-yl)-5-methyl-3,4-dihydro-2H-benzo[1,4]oxazin-6-yloxy]-pyrrolidin-1-yl}-(1,1-dioxo-hexahydro-1lambda*6*-thiopyran-4-yl)-methanone]
IC50 (PI3K alpha): 3580 nM
IC50 (PI3K delta): 61 nM

CCC(=O)N1CC[C@H](Oc2ccc3c(c2)N(c2cnc(OC)c(C)c2)CCO3)C1 [Example A13, 1-{(S)-3-[4-(6-Methoxy-5-methyl-pyridin-3-yl)-3,4-dihydro-2H-benzo[1,4]oxazin-6-yloxy]-pyrrolidin-1-yl}-propan-1-one]
IC50 (PI3K alpha): 292 nM
IC50 (PI3K delta): 5 nM

COc1ncc(N2CCOc3ccc(O[C@H]4CCN(C(=O)c5ccc(=O)[nH]c5)C4)cc32)cc1C#N [Example D20, 2-Methoxy-5-{6-[(S)-1-(6-oxo-1,6-dihydro-pyridine-3-carbonyl)-pyrrolidin-3-yloxy]-2,3-dihydro-benzo[1,4]oxazin-4-yl}-nicotinonitrile]
IC50 (PI3K alpha): 206 nM
IC50 (PI3K delta): 7 nM

COc1ccc(N2CCOc3ccc(O[C@H]4CCN(C(=O)C5CCOCC5)C4)cc32)cn1 [Example D30, {(S)-3-[4-(6-Methoxy-pyridin-3-yl)-3,4-dihydro-2H-benzo[1,4]oxazin-6-yloxy]-pyrrolidin-1-yl}-(tetrahydro-pyran-4-yl)-methanone]
IC50 (PI3K alpha): 5150 nM
IC50 (PI3K delta): 127 nM

COc1ncc(N2CCOc3ccc(O[C@H]4CCN(C(=O)CN(C)C)C4)cc32)cc1C#N [Example D6, 5-{6-[(S)-1-(2-Dimethylamino-acetyl)-pyrrolidin-3-yloxy]-2,3-dihydro-benzo[1,4]oxazin-4-yl}-2-methoxy-nicotinonitrile]
IC50 (PI3K alpha): 650 nM
IC50 (PI3K delta): 9 nM

COc1ncc(N2CCOc3ccc(O[C@H]4CCN(C(=O)c5cnco5)C4)cc32)cc1F [Example B103, {(S)-3-[4-(5-Fluoro-6-methoxy-pyridin-3-yl)-3,4-dihydro-2H-benzo[1,4]oxazin-6-yloxy]-pyrrolidin-1-yl}-oxazol-5-yl-methanone]
IC50 (PI3K alpha): 241 nM
IC50 (PI3K delta): 46 nM
